Reference: the supplement of paper PMC10307832

Key:
Experiment in all cases: relative viability (nuclei count vs DMSO), 5 days (fraction); higher = more cells survive
PAC-1 + Olaparib = compound: C=CCc1cccc(/C=N/NC(=O)CN2CCN(Cc3ccccc3)CC2)c1O [PAC-1] + O=C(c1cc(Cc2n[nH]c(=O)c3ccccc23)ccc1F)N1CCN(C(=O)C2CC2)CC1 [Olaparib] (partner 8 µM)
How it was run: (§1)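 Relative viability is defined as nuclei in treated wells over nuclei in vehicle wells. Duplicate plates were run and medians reported. Lung cancer cell lines in 1536-well plates were dosed by pin tool one day after seeding, with one drug or with a fixed anchor-drug dose plus five library-drug doses (not always all listed) in √10 steps, and nuclei were counted after 5 days.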

PAC-1 + Bortezomib = compound: C=CCc1cccc(/C=N/NC(=O)CN2CCN(Cc3ccccc3)CC2)c1O [PAC-1] + CC(C)C[C@H](NC(=O)[C@H](Cc1ccccc1)NC(=O)c1cnccn1)B(O)O [Bortezomib] (partner 0.002 µM)
How it was run: as §1

PAC-1 + Pictilisib = compound: C=CCc1cccc(/C=N/NC(=O)CN2CCN(Cc3ccccc3)CC2)c1O [PAC-1] + CS(=O)(=O)N1CCN(Cc2cc3nc(-c4cccc5[nH]ncc45)nc(N4CCOCC4)c3s2)CC1 [Pictilisib] (partner 1 µM)
How it was run: as §1

Ibrutinib + Tozasertib = compound: C=CC(=O)N1CCC[C@@H](n2nc(-c3ccc(Oc4ccccc4)cc3)c3c(N)ncnc32)C1 [Ibrutinib] + Cc1cc(Nc2cc(N3CCN(C)CC3)nc(Sc3ccc(NC(=O)C4CC4)cc3)n2)n[nH]1 [Tozasertib] (partner 0.1 µM)
How it was run: as §1

| Cell Line | relative viability (PAC-1 + Olaparib; first compound 0.02 µM) | relative viability (PAC-1 + Olaparib; first compound 0.06325 µM) | relative viability (PAC-1 + Olaparib; first compound 0.2 µM) | relative viability (PAC-1 + Olaparib; first compound 2 µM) | relative viability (PAC-1 + Bortezomib; first compound 0.02 µM) | relative viability (PAC-1 + Bortezomib; first compound 0.06325 µM) | relative viability (PAC-1 + Bortezomib; first compound 0.2 µM) | relative viability (PAC-1 + Bortezomib; first compound 2 µM) | relative viability (PAC-1 + Pictilisib; first compound 0.02 µM) | relative viability (PAC-1 + Pictilisib; first compound 0.06325 µM) | relative viability (PAC-1 + Pictilisib; first compound 0.2 µM) | relative viability (PAC-1 + Pictilisib; first compound 2 µM) | relative viability (Ibrutinib + Tozasertib; first compound 0.005 µM) | relative viability (Ibrutinib + Tozasertib; first compound 0.01581 µM) | relative viability (Ibrutinib + Tozasertib; first compound 0.05 µM) | relative viability (Ibrutinib + Tozasertib; first compound 0.1581 µM) | relative viability (Ibrutinib + Tozasertib; first compound 0.5 µM) |
| --- | --- | --- | --- | --- | --- | --- | --- | --- | --- | --- | --- | --- | --- | --- | --- | --- | --- |
| NCI-H2126 | 0.896 | 0.871 | 0.941 | 0.886 | 1.08 | 1.08 | 1.21 | 1.18 | 0.43 | 0.478 | 0.495 | 0.49 | 0.701 | 0.811 | 0.792 | 0.818 | 0.755 |
| NCI-H1993 | 1.12 | 1.16 | 0.684 | 0.961 | 0.975 | 1.08 | 1.15 | 1.09 | 0.696 | 0.881 | 0.844 | 0.823 | 0.594 | 0.529 | 0.541 | 0.566 | 0.524 |
| NCI-H1793 | 0.682 | 0.855 | 0.7 | 0.628 |  |  |  |  | 0.344 | 0.345 | 0.254 | 0.332 |  | 0.288 | 0.254 | 0.462 | 0.208 |
| NCI-H441 | 0.468 | 0.69 | 0.483 | 0.491 | 0.57 | 0.358 | 0.265 | 0.778 | 0.447 | 0.583 | 0.552 | 0.377 | 0.596 | 0.64 | 0.801 | 0.73 | 0.809 |
| H3255 | 0.64 | 0.579 | 0.536 | 0.515 | 0.876 | 0.778 | 0.861 | 0.729 | 0.454 | 0.455 | 0.448 | 0.471 | 0.729 | 0.615 | 0.581 | 0.672 | 0.312 |
